Test results from ChEMBL document CHEMBL1201862, “PubChem BioAssay data set” (2004).
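Exposure lasted 48 hours, with cells grown in 96-well plates and compounds tested at five concentrations. At the GI50, growth is halved.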 Active and inactive are the calls of the source. Rule as the data show it: active = GI50 up to about 1.1 µM and inactive = higher.

What was measured:
Assay in all cases: inhibition of tumour cell growth, NCI panel, 48 h
[1] = tested on: 786-0
[2] = tested on: ACHN
[3] = tested on: CAKI-1
[4] = tested on: COLO 205
[5] = tested on: DMS-114
[6] = tested on: DMS-273
[7] = tested on: EKVX
[8] = tested on: HCC 2998
[9] = tested on: HCT-116
[10] = tested on: HCT-15
[11] = tested on: HOP-18
[12] = tested on: HOP-62
[13] = tested on: HOP-92
[14] = tested on: HT-29
[15] = tested on: IGROV-1
[16] = tested on: K562
[17] = tested on: KM-20L2
[18] = tested on: KM12
[19] = tested on: LOX IMVI
[20] = tested on: LXFL 529
[21] = tested on: M14
[22] = tested on: M19-MEL
[23] = tested on: MOLT-4
[24] = tested on: Malme-3M
[25] = tested on: NCI-H226
[26] = tested on: NCI-H23
[27] = tested on: NCI-H460
[28] = tested on: NCI-H522
[29] = tested on: OVCAR-3
[30] = tested on: OVCAR-4
[31] = tested on: OVCAR-5
[32] = tested on: OVCAR-8
[33] = tested on: RPMI-8226
[34] = tested on: RXF 393
[35] = tested on: RXF 631
[36] = tested on: SF-268
[37] = tested on: SF-295
[38] = tested on: SF-539
[39] = tested on: SK-MEL-28
[40] = tested on: SK-MEL-2
[41] = tested on: SK-MEL-5
[42] = tested on: SK-OV-3
[43] = tested on: SN12C
[44] = tested on: SNB-19
[45] = tested on: SNB-75
[46] = tested on: SNB-78
[47] = tested on: SW-620
[48] = tested on: TK-10
[49] = tested on: U-251
[50] = tested on: UACC-257
[51] = tested on: UACC-62
[52] = tested on: UO-31
[53] = tested on: XF498

How did the GI50 [1] turn out when `CCOC(=O)C(=O)Nc1c(C)cccc1C(C)(C)C` was run?
The GI50 was > 100 µM (inactive).

What about the GI50 [2] of the same compound?
The GI50 was > 100 µM (inactive).

And the GI50 [3]?
Its GI50 is > 100 µM (inactive).

And the GI50 [4]?
The GI50 was > 100 µM (inactive).

What about the GI50 [5] of the same compound?
The GI50 was > 100 µM (inactive).

And the GI50 [6]?
Its GI50 is > 100 µM (inactive).

And the GI50 [7]?
The GI50 was > 100 µM (inactive).

What about the GI50 [8] of the same compound?
The GI50 was > 100 µM (inactive).

What about the GI50 [9] of the same compound?
The GI50 was > 100 µM (inactive).

And the GI50 [10]?
The GI50 was over 100 µM.

And the GI50 [11]?
Its GI50 is > 100 µM (inactive).

And the GI50 [12]?
The GI50 was > 100 µM (inactive).

And the GI50 [13]?
Its GI50 is > 100 µM (inactive).

And the GI50 [14]?
The GI50 was > 100 µM (inactive).

What about the GI50 [15] of the same compound?
Its GI50 is > 100 µM (inactive).

And the GI50 [16]?
The GI50 was > 100 µM (inactive).

What about the GI50 [17] of the same compound?
The GI50 was > 100 µM (inactive).

What about the GI50 [18] of the same compound?
The GI50 was > 100 µM (inactive).

And the GI50 [19]?
Its GI50 is > 100 µM (inactive).

And the GI50 [20]?
The GI50 was > 100 µM (inactive).

What about the GI50 [21] of the same compound?
Its GI50 is > 100 µM (inactive).

And the GI50 [22]?
The GI50 was > 100 µM (inactive).

What about the GI50 [23] of the same compound?
The GI50 was > 100 µM (inactive).

What about the GI50 [24] of the same compound?
The GI50 was > 100 µM (inactive).

What about the GI50 [25] of the same compound?
The GI50 was > 100 µM (inactive).

And the GI50 [26]?
Its GI50 is > 100 µM (inactive).

And the GI50 [27]?
The GI50 was > 100 µM (inactive).

What about the GI50 [28] of the same compound?
The GI50 was > 100 µM (inactive).

And the GI50 [29]?
The GI50 was > 100 µM (inactive).

And the GI50 [30]?
Its GI50 is 73.3 µM (inactive).

And the GI50 [31]?
Its GI50 is > 100 µM (inactive).

And the GI50 [32]?
Its GI50 is > 100 µM (inactive).

What about the GI50 [33] of the same compound?
Its GI50 is > 100 µM (inactive).

What about the GI50 [34] of the same compound?
Its GI50 is > 100 µM (inactive).

And the GI50 [35]?
Its GI50 is > 100 µM (inactive).

What about the GI50 [36] of the same compound?
The GI50 was > 100 µM (inactive).

What about the GI50 [37] of the same compound?
Its GI50 is > 100 µM (inactive).

What about the GI50 [38] of the same compound?
The GI50 was > 100 µM (inactive).

And the GI50 [39]?
The GI50 was > 100 µM (inactive).

And the GI50 [40]?
Its GI50 is > 100 µM (inactive).

What about the GI50 [41] of the same compound?
Its GI50 is > 100 µM (inactive).

And the GI50 [42]?
The GI50 was > 100 µM (inactive).

And the GI50 [43]?
The GI50 was > 100 µM (inactive).

What about the GI50 [44] of the same compound?
The GI50 was > 100 µM (inactive).

And the GI50 [45]?
The GI50 was 49.1 µM (inactive).

And the GI50 [46]?
Its GI50 is > 100 µM (inactive).

And the GI50 [47]?
Its GI50 is > 100 µM (inactive).

And the GI50 [48]?
The GI50 was > 100 µM (inactive).

And the GI50 [49]?
Its GI50 is > 100 µM (inactive).

And the GI50 [50]?
Its GI50 is > 100 µM (inactive).

And the GI50 [51]?
The GI50 was > 100 µM (inactive).

And the GI50 [52]?
Its GI50 is > 100 µM (inactive).

What about the GI50 [53] of the same compound?
The GI50 was > 100 µM (inactive).
